Test results reported in ChEMBL document CHEMBL5331068, “Briarane-type diterpenoids, the inhibitors of osteoclast formation by interrupting Keap1-Nrf2 interaction and activating Nrf2 pathway” (Eur J Med Chem, 2023).
Calls of active or inactive are those of the source. The rule behind the calls is not given here.

Key:
BMDM [1] = test: Anti-osteoclastogenesis activity in C57BL/6 mouse BMDM cells assessed as inhibition of RANKL-induced osteoclastogenesis at 10 uM incubated for 7 days in the presence of M-CSF by TRAP-staining based microscopic analysis relative to control; type: functional; settings: C57BL/6, BMDM, 168 h, time 7 day
BMDM [2] = test: Anti-osteoclastogenesis activity in RANKL-induced C57BL/6 mouse BMDM cells assessed as downregulation of TRAP mRNA expression at 5 to 10 uM by qRT-PCR analysis; type: functional, cell-based; settings: dose 5-10 µM
BMDM [3] = test: Anti-osteoclastogenesis activity in RANKL-induced C57BL/6 mouse BMDM cells assessed as downregulation of cathepsin K mRNA expression at 5 to 10 uM by qRT-PCR analysis; type: functional, cell-based; settings: dose 5-10 µM
BMDM [4] = test: Anti-osteoclastogenesis activity in RANKL-induced C57BL/6 mouse BMDM cells assessed as inhibition of NFATc1 protein level at 5 to 10 uM in the presence of M-CSF by Western blot analysis; type: functional, cell-based; settings: dose 5-10 µM
BMDM [5] = test: Anti-osteoclastogenesis activity in RANKL-induced C57BL/6 mouse BMDM cells assessed as inhibition of c-Fos protein level at 5 to 10 uM in the presence of M-CSF by Western blot analysis; type: functional, cell-based; settings: dose 5-10 µM
BMDM [6] = test: Anti-osteoclastogenesis activity in RANKL-induced C57BL/6 mouse BMDM cells assessed as inhibition of NFATc1 translocation into nuclei incubated for 3 days by DAPI staining based confocal microscopic analysis; type: functional, cell-based; settings: time 3.0 day
BMDM [7] = test: Anti-osteoclastogenesis activity in RANKL-induced C57BL/6 mouse BMDM cells assessed as decrease in bone resorption pit area incubated for 10 days in the presence of M-CSF by inverted microscopic analysis; type: functional, cell-based; settings: dose 1-10 µM, time 10.0 day
BMDM [8] = test: Anti-osteoclastogenesis activity in C57BL/6 mouse BMDM cells assessed as reduction in RANKL-induced ROS level at 5 to 10 uM incubated for 6 hrs by DCF-DA staining based fluorescence analysis; type: functional, cell-based; settings: dose 5-10 µM
[9] = molecular target: T1, Nuclear factor erythroid 2-related factor 2 (Mus musculus) (UniProt Q60795); test: Stabilization of Nrf2 in mouse RAW264.7 cells assessed as increase in Nrf2 protein level preincubated with compound for 6 hrs followed by CHX addition and measured after 45 mins by Western blot analysis; type: cell-based; settings: time 405.0 min
T1 sequence (whole entry): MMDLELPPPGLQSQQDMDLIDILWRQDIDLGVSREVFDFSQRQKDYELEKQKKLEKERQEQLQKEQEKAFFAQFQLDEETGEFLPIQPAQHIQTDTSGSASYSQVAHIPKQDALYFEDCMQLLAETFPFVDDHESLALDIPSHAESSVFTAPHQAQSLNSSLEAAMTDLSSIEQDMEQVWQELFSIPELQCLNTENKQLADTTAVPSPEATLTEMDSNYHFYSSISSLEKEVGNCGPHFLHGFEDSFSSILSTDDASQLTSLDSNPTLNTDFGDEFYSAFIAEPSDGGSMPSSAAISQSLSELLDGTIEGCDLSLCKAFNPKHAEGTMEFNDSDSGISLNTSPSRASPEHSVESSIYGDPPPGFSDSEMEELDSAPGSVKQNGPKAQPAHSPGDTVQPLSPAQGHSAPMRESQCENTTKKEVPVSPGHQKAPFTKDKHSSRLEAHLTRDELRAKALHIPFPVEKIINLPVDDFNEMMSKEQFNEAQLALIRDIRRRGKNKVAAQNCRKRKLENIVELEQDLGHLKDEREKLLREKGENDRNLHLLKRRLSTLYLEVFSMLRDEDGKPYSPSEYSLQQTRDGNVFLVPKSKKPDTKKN

[10] = molecular target: T1, Nuclear factor erythroid 2-related factor 2 (Mus musculus); test: Stabilization of Nrf2 in mouse RAW264.7 cells assessed as decrease in Nrf2 ubiquitination at 10 uM incubated for 48 hrs by Western blot based Co-immunoprecipitation analysis; type: cell-based
[11] = Inhibition of RANKL-induced ERK phosphorylation in C57BL/6 mouse BMDM cells incubated for 60 mins by Western blot analysis; type: cell-based
[12] = molecular target: T2, NF-kappa-B inhibitor alpha (Mus musculus) (UniProt Q9Z1E3); test: Inhibition of RANKL-induced IkappaBalpha phosphorylation in C57BL/6 mouse BMDM cells incubated for 60 mins by Western blot analysis; type: cell-based
T2 sequence (whole entry): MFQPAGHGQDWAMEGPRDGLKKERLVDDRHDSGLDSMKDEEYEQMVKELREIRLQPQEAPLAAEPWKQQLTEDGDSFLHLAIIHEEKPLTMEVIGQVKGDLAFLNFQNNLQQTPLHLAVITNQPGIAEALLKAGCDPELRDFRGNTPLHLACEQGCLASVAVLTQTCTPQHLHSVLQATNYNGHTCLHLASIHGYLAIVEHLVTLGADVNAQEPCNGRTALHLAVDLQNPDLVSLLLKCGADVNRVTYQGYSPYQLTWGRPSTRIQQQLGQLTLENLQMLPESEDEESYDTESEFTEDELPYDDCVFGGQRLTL

[13] = molecular target: MAP kinase p38 (Mus musculus) (UniProt P47811+O08911+Q9WUI1+Q9Z1B7); test: Inhibition of RANKL-induced p38 MAPK phosphorylation in C57BL/6 mouse BMDM cells transfected with Nrf2 siRNA at 10 uM incubated for 60 mins by Western blot analysis; type: cell-based
[14] = molecular target: Kelch-like ECH-associated protein 1 (Mus musculus) (UniProt Q9Z2X8); test: Binding affinity to Keap1 in mouse RAW264.7 cells assessed as thermal stability at 20 uM preincubated with compound for 1 hrs followed by heating at 37 to 65 degreeC for 3 mins by CETSA; type: cell-based; settings: time 63.0 min
Kelch-like ECH-associated protein 1 (Mus musculus), sequence (Q9Z2X8 whole entry): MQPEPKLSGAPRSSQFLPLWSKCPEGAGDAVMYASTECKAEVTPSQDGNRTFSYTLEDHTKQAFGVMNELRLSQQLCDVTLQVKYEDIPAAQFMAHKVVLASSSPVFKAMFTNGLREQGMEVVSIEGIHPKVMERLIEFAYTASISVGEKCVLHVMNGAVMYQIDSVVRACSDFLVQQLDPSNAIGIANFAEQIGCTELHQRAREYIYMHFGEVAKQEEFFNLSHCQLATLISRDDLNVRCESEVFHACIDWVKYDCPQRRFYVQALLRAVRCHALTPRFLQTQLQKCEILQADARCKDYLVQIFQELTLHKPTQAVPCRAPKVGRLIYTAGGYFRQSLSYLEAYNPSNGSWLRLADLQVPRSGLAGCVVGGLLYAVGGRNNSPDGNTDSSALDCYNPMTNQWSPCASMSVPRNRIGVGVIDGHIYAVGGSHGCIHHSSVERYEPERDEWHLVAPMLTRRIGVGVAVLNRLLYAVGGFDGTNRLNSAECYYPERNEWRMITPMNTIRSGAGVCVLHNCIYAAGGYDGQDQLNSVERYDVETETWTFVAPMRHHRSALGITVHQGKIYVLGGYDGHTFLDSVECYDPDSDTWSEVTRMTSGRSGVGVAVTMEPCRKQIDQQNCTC

[15] = molecular target: Kelch-like ECH-associated protein 1 (Homo sapiens, UniProt Q14145); test: Binding affinity to recombinant human Keap1 by SPR analysis
Kelch-like ECH-associated protein 1, sequence (Q14145 whole entry): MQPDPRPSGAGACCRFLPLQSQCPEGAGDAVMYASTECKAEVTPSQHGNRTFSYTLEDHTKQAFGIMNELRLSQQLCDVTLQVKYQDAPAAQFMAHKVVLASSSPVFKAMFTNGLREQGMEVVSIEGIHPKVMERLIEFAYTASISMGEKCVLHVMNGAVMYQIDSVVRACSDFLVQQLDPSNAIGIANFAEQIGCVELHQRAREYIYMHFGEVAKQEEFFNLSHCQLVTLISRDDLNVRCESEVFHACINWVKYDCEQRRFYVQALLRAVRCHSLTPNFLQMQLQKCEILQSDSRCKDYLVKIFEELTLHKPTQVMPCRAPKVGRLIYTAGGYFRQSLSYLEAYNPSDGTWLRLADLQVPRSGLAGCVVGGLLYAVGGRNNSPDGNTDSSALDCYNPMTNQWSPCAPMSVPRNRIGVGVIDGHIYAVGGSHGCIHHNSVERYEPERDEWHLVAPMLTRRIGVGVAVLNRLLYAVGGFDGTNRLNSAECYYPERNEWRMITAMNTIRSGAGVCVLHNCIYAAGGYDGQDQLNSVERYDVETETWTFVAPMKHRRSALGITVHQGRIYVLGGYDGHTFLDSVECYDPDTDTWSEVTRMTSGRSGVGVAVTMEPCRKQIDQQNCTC

Danio rerio = test: Anti osteoporosis activity in prednisone induced AB Zebrafish model of osteopenia assessed as increase in bone mineralization at 5 to 10 uM administered after 3 days post fertilization and measured after 6 days by Alizarin red staining based analysis; type: functional, organism-based; settings: dose 5-10 µM, time 6.0 day

Activity [9]: Active
Activity [10]: Active
inhibition [12]: Active
inhibition [13]: inactive
Activity [14]: Active
Activity [15]: Active
SMILES: C=C1[C@H]2O[C@]3([C@@H](C)C(=O)O[C@H]3[C@H]1Cl)[C@@H](OC(C)=O)[C@H]1[C@]3(CC[C@H](OC(C)=O)[C@]1(C)[C@@H](OC(C)=O)[C@@H]2OC(C)=O)CO3
inhibition at 10 µM (BMDM [1]): 100%
Activity (BMDM [2]): Active
Activity (BMDM [3]): Active
Activity (BMDM [4]): Active
Activity (BMDM [5]): Active
Activity (BMDM [6]): Active
Activity (BMDM [7]): Dose-Dependent Effect
Activity (BMDM [8]): Active
inhibition [11]: Active
Activity (Danio rerio): Active
